Assay results taken from a melting point compilation (Tetko et al.; mined from patent text by program, amines drawn as free bases though some values may be those of a salt).

Structure (SMILES)	melting point
Oc1cc2c(-c3ccc(Cl)cc3)csc2c(Cl)c1Cl	174 to 176 °C
O=C1NCc2cc(Br)sc21	96 to 97 °C
O=S(=O)(c1ncc(Cl)cn1)c1cccs1	116 to 117 °C
CC(=O)Nc1ccc(Oc2c([N+](=O)[O-])cc(C(=O)O)cc2S(N)(=O)=O)cc1	305 °C
CCSc1cccc(OC(F)(F)F)c1S(=O)(=O)NC(C)(C)C	77 °C
Cc1ccccc1-c1cc(-c2ccccc2C(=O)O)on1	162 to 164 °C
CSc1nc2c(c(=O)[nH]1)CC2	215 °C
C(=Cc1ccnc2[nH]c3ccccc3c12)c1ccccc1	> 220 °C
CCc1cc(Cl)cc2[nH]c(C(=O)O)cc(=O)c12	282 to 283 °C
O=C1c2ccccc2C(=O)N1Cc1cc([N+](=O)[O-])cc([N+](=O)[O-])c1	171 °C
O=Cc1c2ccccc2c(SCCO)c2ccccc12	103 to 104 °C
CC(C)(C)OC(=O)c1ccc(NC#N)cc1	94 to 95 °C
COc1cc([N+](=O)[O-])c(Br)cc1OCc1ccccc1	134 to 135 °C
Cc1cc(C)cc(NC(=N)Nc2ccccc2C(F)(F)F)c1	127 °C
CCc1noc(-c2cn(-c3cccc(OC(C)C)c3)cn2)n1	107 °C
O=C1Nc2cc(Cl)ccc2C1(Br)Br	127 to 130 °C
c1ccc(CCN2CCN(c3nc4cccc5c4n3CCC5)CC2)cc1	112 to 113 °C
COc1ccc(C(=O)Nc2ccccc2)cc1NS(=O)(=O)c1cc(Cl)sc1Cl	189 to 190 °C
CCCCCCCCCCCCCCCCCC(=O)NCCO	96 to 99 °C
COC1=C2C(=C(C(C)C)CC1(C)OC)C(=O)N(CSc1nnnn1-c1ccccc1)S2(=O)=O (configuration not stated)	169 to 171 °C
CN(C)C1CCC(c2c[nH]c3ccc(NC(=N)c4cccs4)cc23)CC1 (configuration not stated)	104 to 106 °C

Structure (SMILES)	melting point
CN(CCCNc1ccc(C#N)cc1)C1C2CCC1CN(Cc1ccccc1)C2 (configuration not stated)	91 to 93 °C
CON1C=C2N=NC3=C(N2C1)N(c1ccccn1)CC(C)=C3	216 to 220 °C
COCOc1ccc(O)cc1OC	70 to 72 °C
CCOc1ccc(C(=O)CBr)cc1C(=O)OC	147 to 148 °C
O=C(O)c1cc(C(F)(F)F)c(F)c(F)c1F	82 to 84 °C
NNC(=O)CCc1cccc(C(F)(F)F)c1	80 to 81 °C
Cc1c(S(=O)(=O)N(O)C(=N)Nc2ccc(Cl)c(Cl)c2)sc2ccc(Cl)cc12	232 to 233 °C
CC(=O)NC[C@H]1CN(c2ccc(N3CCC(O)(CC(N)=O)CC3)c(F)c2)C(=O)O1	208 to 210 °C
COC1CN(C(=O)c2cc(-c3cccc(Cl)c3)c(=O)[nH]c2-c2c(Cl)cccc2C#N)C1	239 to 243 °C
CCOC(=O)C(Cc1ccccc1[N+](=O)[O-])(NC=O)C(=O)OCC	129 to 132 °C
CCCOc1ccc(C2=NN(C(=O)Nc3ccc(OC(F)(F)F)cc3)CC2N(C)C(=O)OC)cc1 (configuration not stated)	153 to 155 °C
O=c1[nH]c2ccccc2n1CCCCN1CCC(O)(c2ccc(Cl)cc2)CC1	161 °C
Oc1ccc2c(c1O)Cc1cccc3c1C2CNC3 (configuration not stated)	175 to 176 °C
CCN(CC)CC(O)CNC(=O)c1c(OCc2ccccc2)c2ccccc2n1-c1ccccc1 (configuration not stated)	80 to 81 °C
N#Cc1cc(Cc2ccc(F)cc2)ccc1N	105 to 107 °C
COC(=O)c1ccccc1-c1ccc(COS(C)(=O)=O)cc1	43 to 45 °C
COC(=O)c1cc(-n2cnc(Br)c2)c(C(F)(F)F)cc1N	163 to 165 °C
COc1ccc2cc(C(=O)O)n(CCNC(C)=O)c2c1	210 to 211 °C
CC(C)OC(=O)N[C@H]1CC[C@H](CCN2CCN(c3cccc(Cl)c3Cl)CC2)CC1	128 to 131 °C
CC1=C(C(=O)OCCOc2ccc(C(=O)c3ccccc3)c(O)c2)CC(C(=O)OCCOc2ccc(C(=O)c3ccccc3)c(O)c2)=C(C)N1	188 °C
O=C(O)Cc1ccc2c(c1)C(=O)c1cccc(Cl)c1CO2	173 to 176 °C
